Data on 51 compounds can be found in patent publication US9393221B2, “Methods and compounds for reducing intracellular lipid storage” (THE GENERAL HOSPITAL CORPORATION, priority 2011, dated 2016).

Where a name gives a salt, the structure may show the parent alone.

The first test has as its system ATGL-KO iPSCs. As to the kind of experiment: High throughput iPSC chemical screening, Oil Red O (ORO) lipid accumulation. For Z-score: test concentration or dose not given here. Format: cell-based, mouse.
Conditions: not given
Consider `CN1CCc2cccc3c2[C@H]1Cc1ccc(O)c(O)c1-3.CN1CCc2cccc3c2[C@H]1Cc1ccc(O)c(O)c1-3.Cl.Cl.O`, for which the Z-score is −0.2622.

Regarding `O=C(O)C1CCCNC1` (racemic) [(±)-Nipecotic acid], the Z-score worked out at 0.6655.

The compound `CC(=C(CCO)SSCC1CCCO1)N(C=O)Cc1cnc(C)nc1N` (stereo in doubt) [Fursultiamine Hydrochloride] gave a Z-score of −0.696.

`C[C@]12CC[C@@H](O)C[C@H]1CC[C@@H]1[C@@H]2CC[C@]2(C)C(=O)CC[C@@H]12` [3-alpha-Hydroxy-5-beta-androstan-17-one] showed a Z-score of −0.187.

The test is the same for the next values; noted with them: glycolytic switch compounds.
Regarding `CN1CCN(C(c2ccccc2)c2ccc(Cl)cc2)CC1` (stereo not shown) [(1-[(4-Chlorophenyl)phenyl-methyl]-4-methylpiperazine)], the “Rank in normalized ORO score from screen” value stood at 720.

The same test, now with this note: normalized ORO level vs DMSO-treated cells; compound present during 7 days differentiation, 96-well; negative = decrease in lipid accumulation.
As for `COc1ccc2c(c1)[C@]13CCCC[C@@H]1[C@H](C2)N(C)CC3`, the Z-score is listed as −0.8776.

`COc1cc2c(cc1OC)C(C)NCC2.Cl` (stereo not shown) displayed a Z-score of 0.4756.

For the compound `Cc1ccc(Cl)c(Nc2ccccc2C(=O)O)c1Cl`, the Z-score is reported as −1.2044.

`CC(C)NCC(O)c1cc(O)cc(O)c1.CC(C)NCC(O)c1cc(O)cc(O)c1.O=S(=O)(O)O` (stereo not shown) returned a Z-score of −0.3842.

The compound `O=C(O)Cc1cc(I)c(Oc2ccc(O)c(I)c2)c(I)c1` registered a Z-score of −0.9554.

`CN(N=O)C(=O)N[C@H]1C(O)O[C@H](CO)[C@@H](O)[C@@H]1O` (mixture of isomers) [Streptozotocin]: the Z-score was 0.0088.

As for `Cl.NCC(O)c1ccc(O)cc1` (racemic) [(+,−)-Octopamine hydrochloride], the Z-score stood at 0.9737.

In the case of `CNCC(O)c1ccc(O)cc1` (racemic) [(+,−)-Synephrine], the Z-score is reported as −1.0448.

Consider `CN(Cc1cnc2nc(N)nc(N)c2n1)c1ccc(C(=O)N[C@@H](CCC(=O)O)C(=O)O)cc1` (racemic) [Amethopterin (R,S)], for which the Z-score is 15.6786.

The compound `CC(=O)NC(CC(=O)O)C(=O)O` (racemic) [Aspartic acid, N-acetyl (R,S)] gave a Z-score of 0.7559.

For the compound `NCC(CC(=O)O)c1ccc(Cl)cc1` (racemic) [Baclofen (R,S)], the Z-score turned out to be 0.07861.

In turn, `O.Oc1cc(O)c2c(c1)OC(c1ccc(O)c(O)c1)C(O)C2` (racemic) [Catechin-(+,−) hydrate] returned a Z-score of −0.9777.

Compound `OCC(O)CN1CCN(c2ccccc2)CC1` (racemic) [Dropropizine (R,S)] showed a Z-score of 0.6396.

In turn, `Nc1c2c(nc3ccccc13)CCCC2O.O=C(O)/C=C\C(=O)O` (racemic) [Hydroxytacrine maleate (R,S)] yielded a Z-score of −0.525.

For `Nc1c(O)cccc1C(=O)CC(N)C(=O)O` (racemic) [Kynurenine, 3-hydroxy (R,S)], the Z-score is 0.1567.

For `COc1ccc(CC2c3cc(OC)c(OC)cc3CCN2C)cc1OC` (racemic) [Laudanosine (R,S)], the Z-score is listed as −0.5493.

Consider `COCCc1ccc(OCC(O)CNC(C)C)cc1.COCCc1ccc(OCC(O)CNC(C)C)cc1.O=C(O)C(O)C(O)C(=O)O` (racemic) [Metoprolol-(+,−) (+)-tartrate salt], for which the Z-score is reported as −0.4304.

As to `CC(=O)NC1CCSC1=O` (racemic) [N-Acetyl-DL-homocysteine Thiolactone], the Z-score is 0.1772.

`CN1CCC2(C)c3cc(O)ccc3N(C)C12.O=C(O)/C=C/C(=O)O` (single isomer, unassigned; (-)) [(−)-Eseroline fumarate salt] had a Z-score of −0.478.

Take `CC(C)NCC(O)c1ccc(O)c(O)c1.Cl` (single isomer, unassigned; (-)) [(−)-Isoproterenol hydrochloride]: the Z-score was found to be 4.267.

`CC(=O)NC1[C@@H](O)OC(CO)[C@@H](O)[C@H]1O[C@H](C)C(=O)O` (stereo in doubt) [Muramic acid, N-acetyl] displayed a Z-score of 1.128.

Compound `Nc1ccccc1S(N)(=O)=O` [2-Aminobenzenesulfonamide] had a Z-score of −1.9389.

Regarding `Clc1cnccn1` [2-Chloropyrazine], the Z-score was −0.5863.

As for `CC(=O)Nc1cc2ccccc2oc1=O` [3-Acetamidocoumarin], the Z-score stood at 0.06786.

`CC(=O)c1cc2ccccc2oc1=O` [3-Acetylcoumarin] yielded a Z-score of −0.8473.

The compound `c1coc(CNc2ncnc3nc[nH]c23)c1` [6-Furfurylaminopurine] showed a Z-score of 0.2192.

`CN1C2CC(=O)CC1C(O)C2` (stereo not shown) [6-Hydroxytropinone] came in with a Z-score of 0.54.

The compound `CN1CCN(C(c2ccccc2)c2ccc(Cl)cc2)CC1` (stereo not shown) [(1-[(4-Chlorophenyl)phenyl-methyl]-4-methylpiperazine)] gave a Z-score of 0.241.

`CC(C)NC[C@@H](O)c1ccc(O)c(O)c1.O=C(O)C(O)C(O)C(=O)O` [(+)-Isoproterenol (+)-bitartrate salt]: the Z-score is −0.728.

On to `CC(C)(C)NC[C@@H](O)COc1cccc2c1CCCC2=O.Cl` [(+)-Levobunolol hydrochloride], for which the Z-score is reported as −0.1813.

For the compound `CC(C)NC[C@@H](O)COc1ccc(CC(N)=O)cc1` [(R)-(+)-Atenolol], the Z-score stood at 0.9856.

Regarding `COc1ccc2cc([C@@H](C)C(=O)[O-])ccc2c1.[Na+]` [(R)-Naproxen sodium salt], the Z-score was found to be 2.243.

As to `CC(C)NC[C@@H](O)COc1cccc2ccccc12.Cl` [(R)-Propranolol hydrochloride], the Z-score is listed as −0.4494.

For the compound `N[C@H]1CONC1=O` [(S)-(−)-Cycloserine], the Z-score is given as −0.4402.

Compound `C[C@@H]1CCC[C@H](C)N1.Cl` [(cis-) Nanophine] gave a Z-score of −1.4074.

In turn, `COc1ccc2c(c1OC)CN1CCc3cc4c(cc3C1C2)OCO4` (stereo not shown) [(d,l)-Tetrahydroberberine] gave a Z-score of 3.2577.

`CC(C)(C)NC[C@H](O)COc1cccc2c1CCCC2=O.Cl` [(−)-Levobunolol hydrochloride] had a Z-score of −0.5665.

In turn, `COc1ccc(-c2cc(=O)c3c(O)cc(O)cc3o2)cc1` [Acacetin] yielded a Z-score of 0.4211.

In turn, `CCCC(=O)Nc1ccc(OCC(O)CNC(C)C)c(C(C)=O)c1` (stereo not shown) [Acebutolol hydrochloride] returned a Z-score of 0.4578.

With `O=C(O)COC(=O)Cc1ccccc1Nc1c(Cl)cccc1Cl` [Aceclofenac], the Z-score is reported as −0.5442.

Compound `COc1ccc2c(c1)c(CC(=O)OCC(=O)O)c(C)n2C(=O)c1ccc(Cl)cc1` [Acemetacin] had a Z-score of −0.9005.

`CC(=O)CC(c1ccc([N+](=O)[O-])cc1)c1c(O)c2ccccc2oc1=O` (stereo not shown) [Acenocoumarol] gave a Z-score of −1.4804.

As for `CC(=O)Nc1ccc(O)cc1` [Acetaminophen], the Z-score is on record as −0.6512.

Turning to `CC(=O)Nc1nnc(S(N)(=O)=O)s1` [Acetazolamide], the Z-score is 0.8773.

Compound `CC(=O)c1ccc(S(=O)(=O)NC(=O)NC2CCCCC2)cc1` [Acetohexamide] showed a Z-score of 0.3584.

In turn, `CC(=O)c1ccc2c(c1)N(CCCN(C)C)c1ccccc1S2.O=C(O)/C=C\C(=O)O` [Acetopromazine maleate salt] came in with a Z-score of −0.5926.

For the compound `CC(=O)Oc1ccccc1C(=O)Oc1ccccc1C(=O)O` [Acetylsalicylsalicylic acid], the Z-score is listed as −1.3067.
